Measurements: patent US6531160B2, “Microcapsules with an aqueous core containing at least one water-soluble cosmetic or dermatological active principle and cosmetic or dermatological compositions containing them” (L′Oreal, priority 2000, dated 2003)

assay: Loss of active agent after storage for 2 months at 45° C. (microcapsule suspension vs control aqueous solution); format: physicochemical; conditions: control aqueous solution of the active agent, same weight concentration
Method: (§1) The microcapsule suspension thus obtained is stored for 2 months at a temperature of 45° C. After this storage period, the loss of cytochrome C from the suspension and that of a control aqueous solution of cytochrome C having the same weight concentration of 0.25% and which has been stored under the same conditions, are measured.
as §1, with “chlorophylline” for “cytochrome C”, “0.1%,” for “0.25%”
as §1, with “ascorbic acid” for “cytochrome C”, “5% and also a pH of 6,” for “0.25%”

| Compound | Loss of active agent after storage for 2 months at 45° C., non-encapsulated control |
| --- | --- |
| cytochrome C | 60% |
| O=C1O[C@H]([C@@H](O)CO)C(O)=C1O [ascorbic acid] | 40% |
| chlorophylline | 60% |
